{
  "source": "patent US20110311601A1",
  "about": "“ANTIMICROBIAL MEDICAL DEVICES” (priority 2010, published 2011)",
  "test_in_all_cases": "micro-dilution assay (MBC, LD90)",
  "assay_type_in_all_cases": "cell-based",
  "key": {"[1]": {"system": "Klebsiella pneumoniae (ESBL) CF 7 (wild-type)", "method": "(§1) The anti-bacterial activity of hβD2 was tested by a micro-dilution assay. Bacteria and fungi were streaked from a glycerol stock onto a Brain Heart Infusion (BHI) agar plate (3.7% w/v BHI Bouillon, 1.5% w/v Agar), grown overnight at 37° C. and 30° C., respectively and subsequently used to inoculate 40 ml of 3.7% w/v BHI Bouillon without any antibiotics in 100 ml flasks. Fresh cells were harvested by centrifugation at 16000 rpm for 10 min and washed twice with 10 mM sodium phosphate buffer, pH 7.2. The optical density was adjusted to 10^4 cells/ml. For anti-bacterial testing hβD2 was incubated in one well of a microtiter plate containing 100 μl of the bacterial suspension. Therefore, ten microlitres of hβD2 solution with a range of final concentrations tested from 0.0125 up to and including 100 mg/l was added to the bacterial suspension and incubated at 37° C. and 30° C., respectively for 2 h before colony forming units were determined. Colony forming units (CFU) were determined after plating 100 μl of a 1:100 dilution of the bacterial suspension on petri dishes with BHI medium and incubating them overnight at 37° C. For every group of the hβD2 added samples and the controls, 5 independent anti-bacterial assays were performed. A control (NC) of bacterial growth was examined for every independent assay. The number of CFU on the control (consisting of a single petri dish) was set to 0% bactericidal activity. The reduction in the CFU resulting from the anti-bacterial activity of hβD2 was related to the absolute CFU of the control within every independent assay. This value, given as a percentage of the bacterial “killing” activity, was used to describe the antibacterial activity. This kind of normalisation of the antibacterial data was performed for every experimental group.\n(§2) The antibacterial activity of hβD2 were given either as minimum bactericidal concentration (MBC), i.e., the minimum concentration of hβD2 in μg/ml which is required to kill 99.9% of the bacteria or fungi or as lethal dose (LD90), i.e., the concentration of hβD2 in μg/ml which is lethal for 90% of bacteria or fungi."}, "[2]": {"system": "Staphylococcus aureus ATCC 33593 (MRSA)", "method": "as §1, §2"}, "[3]": {"system": "Candida albicans ATCC 24433", "method": "as §1, §2"}, "[4]": {"system": "Aeeromonas hydrophila ATCC 7966", "method": "as §1, §2"}, "[5]": {"system": "Salmonella typhimurium ATCC 13311", "method": "as §1, §2"}, "E. coli ATCC 35218": {"system": "E. coli ATCC 35218", "method": "as §1, §2"}, "[6]": {"system": "Pseudomonas aeruginosa ATCC 11440", "method": "as §1, §2"}, "[7]": {"system": "Enterobacter cloacae Va 12270/03 (wild-type)", "method": "as §1, §2"}, "[8]": {"system": "Staphylococcus epidermidis ATCC 14990", "method": "as §1, §2"}, "[9]": {"system": "Streptococcus mutans ATCC 35668", "method": "as §1, §2"}, "[10]": {"system": "Acinetobacter Genosp. 11 ATCC 11171", "method": "as §1, §2"}, "[11]": {"system": "Staphylococcus aureus (MRSA 344) (wild-type)", "method": "as §1, §2"}, "[12]": {"system": "Propionibacterium acnes NCTC 737", "method": "as §1, §2"}, "[13]": {"system": "Enterococcus faecium (VRE) W 354 (wild-type)", "method": "as §1, §2"}, "[14]": {"system": "Enterobacter cloacae ATCC 13047", "method": "as §1, §2"}, "[15]": {"system": "E. coli (ESBL 3) Va 4425/01 (wild-type)", "method": "as §1, §2"}, "[16]": {"system": "Acinetobacter genosp. 3 ATCC 19004", "method": "as §1, §2"}, "[17]": {"system": "Klebsiella pneumoniae (ESBL) CF 2 (wild-type)", "method": "as §1, §2"}, "[18]": {"system": "Actinobacillus actinommycetemcomitans NCTC 10979", "method": "as §1, §2"}, "[19]": {"system": "Saccharomyces cerevisiae ATCC 9763", "method": "as §1, §2"}, "[20]": {"system": "Proteus vulgaris ATCC 13315", "method": "as §1, §2"}, "[21]": {"system": "Citrobacter freundii BK 3796/00 (wild-type)", "method": "as §1, §2"}, "[22]": {"system": "Brevundimonas diminuta ATCC 11568", "method": "as §1, §2"}, "[23]": {"system": "Streptococcus pyogenes ATCC 12344", "method": "as §1, §2"}, "[24]": {"system": "Pseudomonas aeruginosa ATCC 11446", "method": "as §1, §2"}, "[25]": {"system": "Helicobacter pylori ATCC 49503", "method": "as §1, §2"}},
  "note": "Where no end group is shown, it is not given here.",
  "data": [
    {"substance": "human β-defensin-2 (GIGDPVTCLKSGAICHPVFCPRRYKQIGTCGLPGTKCCKKP; ends and bridges not checked; cysteine pairing not given here) [hβD2, recombinant hβD2]", "values": [
      {"measurement": "LD 90 = μg/ml 90% killing", "setting": "[1]", "result": 25, "unit": "µg/mL"},
      {"measurement": "MBC = μg/ml 99.9% killing", "setting": "[1]", "result": 50, "unit": "µg/mL"},
      {"measurement": "LD 90 = μg/ml 90% killing", "setting": "[2]", "result": 100, "unit": "µg/mL"},
      {"measurement": "MBC = μg/ml 99.9% killing", "setting": "[2]", "result": ">100", "unit": "µg/mL"},
      {"measurement": "LD 90 = μg/ml 90% killing", "setting": "[3]", "result": 3.125, "unit": "µg/mL"},
      {"measurement": "MBC = μg/ml 99.9% killing", "setting": "[3]", "result": 25, "unit": "µg/mL"},
      {"measurement": "LD 90 = μg/ml 90% killing", "setting": "[4]", "result": 100, "unit": "µg/mL"},
      {"measurement": "MBC = μg/ml 99.9% killing", "setting": "[4]", "result": ">100", "unit": "µg/mL"},
      {"measurement": "LD 90 = μg/ml 90% killing", "setting": "[5]", "result": 1.56, "unit": "µg/mL"},
      {"measurement": "MBC = μg/ml 99.9% killing", "setting": "[5]", "result": 6.25, "unit": "µg/mL"},
      {"measurement": "LD 90 = μg/ml 90% killing", "setting": "E. coli ATCC 35218", "result": 3.125, "unit": "µg/mL"},
      {"measurement": "MBC = μg/ml 99.9% killing", "setting": "E. coli ATCC 35218", "result": 6.25, "unit": "µg/mL"},
      {"measurement": "LD 90 = μg/ml 90% killing", "setting": "[6]", "result": 12.5, "unit": "µg/mL"},
      {"measurement": "MBC = μg/ml 99.9% killing", "setting": "[6]", "result": 12.5, "unit": "µg/mL"},
      {"measurement": "LD 90 = μg/ml 90% killing", "setting": "[7]", "result": 6.25, "unit": "µg/mL"},
      {"measurement": "MBC = μg/ml 99.9% killing", "setting": "[7]", "result": 12.5, "unit": "µg/mL"},
      {"measurement": "LD 90 = μg/ml 90% killing", "setting": "[8]", "result": 50, "unit": "µg/mL"},
      {"measurement": "MBC = μg/ml 99.9% killing", "setting": "[8]", "result": 100, "unit": "µg/mL"},
      {"measurement": "LD 90 = μg/ml 90% killing", "setting": "[9]", "result": 100, "unit": "µg/mL"},
      {"measurement": "MBC = μg/ml 99.9% killing", "setting": "[9]", "result": ">100", "unit": "µg/mL"},
      {"measurement": "LD 90 = μg/ml 90% killing", "setting": "[10]", "result": 0.39, "unit": "µg/mL"},
      {"measurement": "MBC = μg/ml 99.9% killing", "setting": "[10]", "result": 3.125, "unit": "µg/mL"},
      {"measurement": "LD 90 = μg/ml 90% killing", "setting": "[11]", "result": 100, "unit": "µg/mL"},
      {"measurement": "MBC = μg/ml 99.9% killing", "setting": "[11]", "result": 100, "unit": "µg/mL"},
      {"measurement": "LD 90 = μg/ml 90% killing", "setting": "[12]", "result": 50, "unit": "µg/mL"},
      {"measurement": "MBC = μg/ml 99.9% killing", "setting": "[12]", "result": 100, "unit": "µg/mL"},
      {"measurement": "LD 90 = μg/ml 90% killing", "setting": "[13]", "result": 50, "unit": "µg/mL"},
      {"measurement": "MBC = μg/ml 99.9% killing", "setting": "[13]", "result": 100, "unit": "µg/mL"},
      {"measurement": "LD 90 = μg/ml 90% killing", "setting": "[14]", "result": 25, "unit": "µg/mL"},
      {"measurement": "MBC = μg/ml 99.9% killing", "setting": "[14]", "result": 100, "unit": "µg/mL"},
      {"measurement": "LD 90 = μg/ml 90% killing", "setting": "[15]", "result": 6.25, "unit": "µg/mL"},
      {"measurement": "MBC = μg/ml 99.9% killing", "setting": "[15]", "result": 12.5, "unit": "µg/mL"},
      {"measurement": "LD 90 = μg/ml 90% killing", "setting": "[16]", "result": 0.2, "unit": "µg/mL"},
      {"measurement": "MBC = μg/ml 99.9% killing", "setting": "[16]", "result": 0.78, "unit": "µg/mL"},
      {"measurement": "LD 90 = μg/ml 90% killing", "setting": "[17]", "result": 6.25, "unit": "µg/mL"},
      {"measurement": "MBC = μg/ml 99.9% killing", "setting": "[17]", "result": 25, "unit": "µg/mL"},
      {"measurement": "LD 90 = μg/ml 90% killing", "setting": "[18]", "result": 100, "unit": "µg/mL"},
      {"measurement": "MBC = μg/ml 99.9% killing", "setting": "[18]", "result": ">100", "unit": "µg/mL"},
      {"measurement": "LD 90 = μg/ml 90% killing", "setting": "[19]", "result": 3.125, "unit": "µg/mL"},
      {"measurement": "MBC = μg/ml 99.9% killing", "setting": "[19]", "result": 25, "unit": "µg/mL"},
      {"measurement": "LD 90 = μg/ml 90% killing", "setting": "[20]", "result": 3.125, "unit": "µg/mL"},
      {"measurement": "MBC = μg/ml 99.9% killing", "setting": "[20]", "result": 12.5, "unit": "µg/mL"},
      {"measurement": "LD 90 = μg/ml 90% killing", "setting": "[21]", "result": 3.125, "unit": "µg/mL"},
      {"measurement": "MBC = μg/ml 99.9% killing", "setting": "[21]", "result": 6.25, "unit": "µg/mL"},
      {"measurement": "LD 90 = μg/ml 90% killing", "setting": "[22]", "result": 6.25, "unit": "µg/mL"},
      {"measurement": "MBC = μg/ml 99.9% killing", "setting": "[22]", "result": 12.5, "unit": "µg/mL"},
      {"measurement": "LD 90 = μg/ml 90% killing", "setting": "[23]", "result": 100, "unit": "µg/mL"},
      {"measurement": "MBC = μg/ml 99.9% killing", "setting": "[23]", "result": ">100", "unit": "µg/mL"},
      {"measurement": "LD 90 = μg/ml 90% killing", "setting": "[24]", "result": 12.5, "unit": "µg/mL"},
      {"measurement": "MBC = μg/ml 99.9% killing", "setting": "[24]", "result": 12.5, "unit": "µg/mL"},
      {"measurement": "LD 90 = μg/ml 90% killing", "setting": "[25]", "result": 12.5, "unit": "µg/mL"},
      {"measurement": "MBC = μg/ml 99.9% killing", "setting": "[25]", "result": 50, "unit": "µg/mL"}
    ]}
  ]
}
